Assay results taken from patent US20240279283A1, “CYCLIC PEPTIDE ANTIBIOTICS” (priority 2021, published 2024).
Bridge positions count the residues as written; N and C are the ends. Square brackets hold non-standard residues; d marks the D form. Peptide text beside a SMILES is read from it. Bip = N[C@@H](Cc1ccc(-c2ccccc2)cc1)C(=O)O; 1Nal = N[C@@H](Cc1cccc2ccccc12)C(=O)O; 2Nal = N[C@@H](Cc1ccc2ccccc2c1)C(=O)O; d1Nal = N[C@H](Cc1cccc2ccccc12)C(=O)O; dHis(π-Me) = Cn1cncc1C[C@@H](N)C(=O)O; His(π-Me) = Cn1cncc1C[C@H](N)C(=O)O; NMeY = CN[C@@H](Cc1ccc(O)cc1)C(=O)O; dNMeY = CN[C@H](Cc1ccc(O)cc1)C(=O)O; NMeR = CN[C@@H](CCCNC(=N)N)C(=O)O; dAbu = CC[C@@H](N)C(=O)O; Abu = CC[C@H](N)C(=O)O

Experiments:
Type in all cases: cell-based
Details in all cases: LB broth, 5×10^5 CFU/ml, 37° C., 18 hours, scored by eye
E. coli 25922 = experiment: Minimum Inhibitory Concentration (MIC) determination, E. coli 25922; set-up: unit not given here
Experimental: (§1) MICs were determined by performing two-fold serial dilutions of peptides in LB broth to a final volume of 0.1 ml in round-bottom 96-well assay plates (Corning Life Sciences No 3788). Peptides were initially resuspended in 100% DMSO to 10 mM and subsequently diluted in LB medium to the appropriate concentration. Each well was inoculated with 5×10^5 CFU/ml of the screening stain and incubated at 37° C. without agitation for 18 hours. Plates were scored by eye, and the lowest compound concentration preventing visible growth was determined to be the MIC.

E. coli BW25113 = experiment: Minimum Inhibitory Concentration (MIC) determination, E. coli BW25113; set-up: unit not given here
Experimental: as §1

K. pneumoniae ATCC43816 = experiment: Minimum Inhibitory Concentration (MIC) determination, K. pneumoniae ATCC43816; set-up: unit not given here
Experimental: as §1

E. cloacae ATCC222 = experiment: Minimum Inhibitory Concentration (MIC) determination, E. cloacae ATCC222; set-up: unit not given here
Experimental: as §1

E. coli 25922 IMP = experiment: Minimum Inhibitory Concentration (MIC) determination, E. coli 25922 IMP
Experimental: as §1

Row | SMILES | MIC E. coli 25922 WUXI::MIC (E. coli 25922) | MIC E. coli BW25113 WUXI::MIC (E. coli BW25113) | MIC K. pneumoniae ATCC43816 Wuxi::MIC (K. pneumoniae ATCC43816) | MIC E. cloacae ATCC222 WUXI::MIC (E. cloacae ATCC222) | MIC E. coli 25922 IMP WUXI::MIC (E. coli 25922 IMP)
1 | CC[C@@H]1NC(=O)[C@H](Cc2ccccc2)NC(=O)CSC[C@@H](C(=O)NCC(N)=O)NC(=O)[C@H](Cc2cncn2C)NC(=O)[C@H](CCCNC(=N)N)NC(=O)[C@H](Cc2cnc[nH]2)NC(=O)[C@H](Cc2ccc(O)cc2)N(C)C(=O)[C@H](CCCNC(=N)N)NC(=O)[C@H](CO)NC(=O)CNC(=O)[C@H](Cc2cnc[nH]2)NC(=O)[C@H](Cc2cccc3ccccc23)NC1=O (racemic) [Compound 16] | 27.32 | 14.767 | 8.5333 | 0.2633 | 1.577
2 | CC[C@@H]1NC(=O)[C@H](Cc2ccccc2)NC(=O)CSC[C@@H](C(=O)NCC(N)=O)NC(=O)[C@H](Cc2cncn2C)NC(=O)[C@H](CCCNC(=N)N)N(C)C(=O)[C@H](Cc2c[nH]cn2)NC(=O)[C@H](Cc2ccc(O)cc2)N(C)C(=O)[C@H](CCCNC(=N)N)NC(=O)[C@H](CO)NC(=O)CNC(=O)[C@H](Cc2c[nH]cn2)NC(=O)[C@H](Cc2cccc3ccccc23)NC1=O [Compound 34] ({CH2CO}-F[Abu][1Nal]HGSR[NMeY]H[NMeR][His(π-Me)]CG-NH2; thioether N-12) | 41.667 | 100 | 25 | 6.3 | 0.063
3 | CC[C@@H]1NC(=O)[C@H](Cc2ccc(O)cc2)NC(=O)CSC[C@@H](C(=O)NCC(N)=O)NC(=O)[C@H](Cc2cncn2C)NC(=O)[C@H](CCCNC(=N)N)NC(=O)[C@H](Cc2c[nH]cn2)NC(=O)[C@H](Cc2ccc(O)cc2)N(C)C(=O)[C@H](CCCNC(=N)N)NC(=O)[C@H](CO)NC(=O)CNC(=O)[C@H](Cc2c[nH]cn2)NC(=O)[C@H](Cc2cccc3ccccc23)NC1=O [Compound 19, (3R,6S,9S,12S,15S,18S,21S,27S,30S, 33S,36S)-N-(2-amino-2-oxo-ethyl)-33-ethyl-9,18-bis(3-guanidinopropyl)-21-(hydroxymethyl)-15,36-bis[(4-hydroxyphenyl)methyl]-12,27-bis(1H-imidazol-4-ylmethyl)-16-methyl-6-[(3-methylimidazol-4-yl)methyl]-30-(1-naphthylmethyl)-5,8,11,14,17,20,23,26,29,32,35,38-dodecaoxo-1-thia-4,7,10,13,16,19,22,25,28,31,34,37-dodecazacyclononatriacontane-3-carboxamide] ({CH2CO}-Y[Abu][1Nal]HGSR[NMeY]HR[His(π-Me)]CG-NH2; thioether N-12) | 3.1 | 6.3 | 6.3 | 0.39 | 0.0039
4 | CC[C@@H]1NC(=O)[C@H](Cc2ccccc2)NC(=O)CSC[C@@H](C(=O)NCC(N)=O)NC(=O)[C@H](Cc2cncn2C)NC(=O)[C@H](C)NC(=O)[C@H](Cc2c[nH]cn2)NC(=O)[C@H](Cc2ccc(O)cc2)N(C)C(=O)[C@H](CCCNC(=N)N)NC(=O)[C@H](CO)NC(=O)CNC(=O)[C@H](Cc2c[nH]cn2)NC(=O)[C@H](Cc2cccc3ccccc23)NC1=O (stereo in doubt) [Compound 38] | 100 | 100 | 100 | 13 | 0.063
5 | CC[C@H](C)[C@@H]1NC(=O)[C@H]([C@@H](C)O)NC(=O)[C@H](Cc2cncn2C)NC(=O)[C@H](Cc2ccccc2)NC(=O)CSC[C@@H](C(=O)NCC(N)=O)NC(=O)[C@H](Cc2ccc(O)cc2)NC(=O)[C@H](Cc2c[nH]c3ccccc23)NC(=O)[C@H](Cc2ccc(O)cc2)NC(=O)[C@H](CCCNC(=N)N)NC(=O)[C@H](Cc2ccccc2)NC(=O)C(C)(C)NC(=O)[C@H](CO)NC(=O)[C@H](CCCCN)NC(=O)[C@H](CCCNC(=N)N)NC1=O (racemic) [Compound 59] | 8 | 16 |  |  | 1
6 | CC[C@H]1NC(=O)[C@@H](Cc2ccccc2)NC(=O)CSC[C@H](C(=O)NCC(N)=O)NC(=O)[C@@H](Cc2cncn2C)NC(=O)[C@@H](CCCNC(=N)N)NC(=O)[C@@H](Cc2c[nH]cn2)NC(=O)[C@@H](Cc2ccc(O)cc2)N(C)C(=O)[C@@H](CCCNC(=N)N)NC(=O)[C@@H](CO)NC(=O)[C@@H](CCCNC(=N)N)NC(=O)[C@@H](Cc2c[nH]cn2)NC(=O)[C@@H](Cc2cccc3ccccc23)NC1=O [Compound 28] ({CH2CO}-[dF][dAbu][d1Nal][dH][dR][dS][dR][dNMeY][dH][dR][dHis(π-Me)][dC]G-NH2; thioether N-12) | 3.1 | 6.3 | 3.1 | 0.2 | 0.002
7 | CC[C@@H]1NC(=O)[C@H](Cc2ccccc2)NC(=O)CSC[C@@H](C(=O)NCC(N)=O)NC(=O)[C@H](Cc2cncn2C)NC(=O)[C@H](CCCNC(=N)N)NC(=O)[C@H](Cc2c[nH]cn2)NC(=O)[C@H](Cc2ccc(O)cc2)NC(=O)[C@H](CCCNC(=N)N)NC(=O)[C@H](CO)NC(=O)CNC(=O)[C@H](Cc2c[nH]cn2)NC(=O)[C@H](Cc2cccc3ccccc23)NC1=O [Compound 32, (3R,6S,9S,12S,15S,18S,21S,27S,30S, 33S,36S)-N-(2-amino-2-oxo-ethyl)-36-benzyl-33-ethyl-9,18-bis(3-guanidinopropyl)-21-(hydroxymethyl)-15-[(4-hydroxyphenyl)methyl]-12,27-bis(1H-imidazol-4-ylmethyl)-6-[(3-methylimidazol-4-yl)methyl]-30-(1-naphthylmethyl)-5,8,11,14,17,20,23,26,29,32,35,38-dodecaoxo-1-thia-4,7,10,13,16,19,22,25,28,31,34,37-dodecazacyclononatriacontane-3-carboxamide] ({CH2CO}-F[Abu][1Nal]HGSRYHR[His(π-Me)]CG-NH2; thioether N-12) | 25 |  |  |  | 0.031
8 | CC[C@@H]1NC(=O)[C@H](Cc2ccccc2)NC(=O)CSC[C@@H](C(=O)NCC(N)=O)NC(=O)[C@H](Cc2cncn2C)NC(=O)[C@H](CCCNC(=N)N)NC(=O)[C@H](Cc2c[nH]cn2)NC(=O)[C@H](Cc2ccc(O)cc2)N(C)C(=O)[C@H](CCCNC(=N)N)NC(=O)[C@H](CO)NC(=O)CNC(=O)[C@H](Cc2c[nH]cn2)NC(=O)[C@H](Cc2ccc3ccccc3c2)NC1=O [Compound 25] ({CH2CO}-F[Abu][2Nal]HGSR[NMeY]HR[His(π-Me)]CG-NH2; thioether N-12) | 25 |  |  |  | 0.031
9 | CC[C@@H]1NC(=O)[C@H](Cc2ccccc2)NC(=O)CSC[C@@H](C(=O)NCC(N)=O)NC(=O)[C@H](Cc2cncn2C)NC(=O)[C@H](CCCNC(=N)N)NC(=O)[C@H](Cc2c[nH]cn2)NC(=O)[C@H](Cc2ccc(O)cc2)N(C)C(=O)[C@H](CCCNC(=N)N)NC(=O)[C@H](CO)NC(=O)CNC(=O)[C@H](Cc2c[nH]cn2)NC(=O)[C@H](Cc2ccc(-c3ccccc3)cc2)NC1=O [Compound 24] ({CH2CO}-F[Abu][Bip]HGSR[NMeY]HR[His(π-Me)]CG-NH2; thioether N-12) | 13 |  |  |  | 0.016
10 | CC[C@H](C)[C@@H]1NC(=O)[C@H]([C@@H](C)O)NC(=O)[C@H](Cc2cncn2C)NC(=O)[C@H](Cc2ccccc2)NC(=O)CSC[C@@H](C(=O)NCC(N)=O)NC(=O)[C@H](Cc2ccc(O)cc2)NC(=O)[C@H](Cc2ccc(Cl)cc2)NC(=O)[C@H](Cc2ccc(O)cc2)NC(=O)[C@H](CCCNC(=N)N)NC(=O)[C@H](Cc2ccccc2)NC(=O)C(C)(C)NC(=O)[C@H](CO)NC(=O)[C@H](CCCCN)NC(=O)[C@H](CCCNC(=N)N)NC1=O (mixture of isomers) [Compound 60] | 16 | 16 |  |  | 1
11 | CC[C@H](C)[C@@H]1NC(=O)[C@H]([C@@H](C)O)NC(=O)[C@H](Cc2cncn2C)NC(=O)[C@H](Cc2ccccc2)NC(=O)CSC[C@@H](C(=O)NCC(N)=O)NC(=O)[C@H](Cc2ccc(O)cc2)NC(=O)[C@H](Cc2c[nH]c3ccccc23)NC(=O)[C@H](Cc2ccc(O)cc2)NC(=O)[C@H](CCCCN)NC(=O)[C@H](Cc2ccccc2)NC(=O)C(C)(C)NC(=O)[C@H](CO)NC(=O)[C@H](CCCCN)NC(=O)[C@H](CCCNC(=N)N)NC1=O (racemic) [Compound 61] | 16 | 16 |  |  | 1
12 | CC[C@@H]1NC(=O)[C@H](Cc2ccccc2)NC(=O)CSC[C@@H](C(=O)NCC(N)=O)NC(=O)[C@H](Cc2cncn2C)NC(=O)[C@H](CCCNC(=N)N)NC(=O)[C@H](Cc2c[nH]cn2)NC(=O)[C@H](Cc2ccc(O)cc2)N(C)C(=O)[C@H](C)NC(=O)[C@H](CO)NC(=O)CNC(=O)[C@H](Cc2c[nH]cn2)NC(=O)[C@H](Cc2cccc3ccccc23)NC1=O [Compound 36] ({CH2CO}-F[Abu][1Nal]HGSA[NMeY]HR[His(π-Me)]CG-NH2; thioether N-12) | 100 |  |  |  | 100
